The text below walks through data of ChEMBL document CHEMBL4425153, “Matched and mixed cap derivatives in the tetracyclic indole class of HCV NS5A inhibitors” (Bioorg Med Chem Lett, 2016).

Residue numbers refer to the chain shown, from its start.

Data set [1] relates to T1, Nonstructural protein 5A (Hepatitis C virus), Q5L478 [Y93H].
T1 sequence (whole entry): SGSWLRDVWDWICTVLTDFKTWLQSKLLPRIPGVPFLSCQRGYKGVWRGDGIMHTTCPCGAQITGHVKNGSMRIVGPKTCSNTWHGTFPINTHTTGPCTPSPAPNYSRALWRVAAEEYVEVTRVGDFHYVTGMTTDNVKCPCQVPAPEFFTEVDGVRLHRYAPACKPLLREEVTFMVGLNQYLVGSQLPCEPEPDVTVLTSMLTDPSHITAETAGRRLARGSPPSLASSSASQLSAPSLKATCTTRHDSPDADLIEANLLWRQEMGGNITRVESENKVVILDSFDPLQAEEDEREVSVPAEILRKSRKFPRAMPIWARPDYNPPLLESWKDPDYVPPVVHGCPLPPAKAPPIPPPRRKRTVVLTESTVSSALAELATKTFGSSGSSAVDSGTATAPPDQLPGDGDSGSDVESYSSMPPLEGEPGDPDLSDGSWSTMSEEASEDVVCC
Briefly: Inhibition of HCV genotype 1a NS5A Y93H mutant assessed as reduction in viral RNA level by cell based real time PCR method. Conditions: Hepatitis C virus subtype 1a.

Data set [2] concerns the target T2, Nonstructural protein 5A (Hepatitis C virus) (UniProt Q5L478).
T2 sequence (whole entry): T1 sequence (whole entry) with H93Y
Briefly: Inhibition of wild type HCV genotype 1a NS5A assessed as reduction in viral RNA level by cell based real time PCR method. The note with it: Hepatitis C virus subtype 1a.

The test system of data set [3] is Nonstructural protein 5A (Hepatitis C virus), Q5L478 [UNDEFINED MUTATION]. The data set can be described thus: Inhibition of HCV genotype 1a NS5A L31V mutant assessed as reduction in viral RNA level by cell based real time PCR method. The note with it: Hepatitis C virus subtype 1a.
Data set [4] has as its target T2, Nonstructural protein 5A (Hepatitis C virus). Briefly: Inhibition of wild type HCV genotype 2b NS5A assessed as reduction in viral RNA level by cell based real time PCR method. The note with it: Hepatitis C virus subtype 2b.
Data set [5] in a line: Drug level in rat at 10 mg/kg measured at 1 hr. The format is ADME, organism-based. Conditions: in vivo, read-out: Drug uptake.
Data set [6] can be described thus: Tmax in rat at 10 mg/kg. The note with it: in vivo. The class given is ADME, organism-based.
Data set [7] in a line: Cmax in rat at 10 mg/kg. The class given is ADME, organism-based. Also on record: dose 10 mg/kg. The note with it: in vivo.
Data set [8] in a line: Half life in rat at 5 mg/kg. The format is ADME, organism-based. Conditions: in vivo.
A short description of data set [9]: Oral bioavailability in rat at 5 mg/kg. The format is ADME, organism-based. The note with it: in vivo.
A short description of data set [10]: Cmax in rat at 5 mg/kg. Conditions: in vivo. The format is ADME, organism-based. Set-up: dose 5 mg/kg.
A short description of data set [11]: AUC in rat at 5 mg/kg. The class given is ADME, organism-based. The note with it: in vivo.

`COC(=O)N[C@H](C(=O)N1CCC[C@H]1c1ncc(-c2ccc3c(c2)O[C@@H](c2ccccc2)n2c-3cc3cc(-c4cnc([C@@H]5CCCN5C(=O)[C@@H](NC(=O)OC)[C@@H](C)O)[nH]4)ccc32)[nH]1)[C@@H](C)O`: the EC90 was > 100 nM in data set [1], > 1 nM in [2], > 100 nM in [3] and > 100 nM in [4].
Consider `COC(=O)N[C@H](C(=O)N1CCC[C@H]1c1ncc(-c2ccc3c(c2)O[C@@H](c2ccccc2)n2c-3cc3cc(-c4cnc([C@@H]5CCCN5C(=O)[C@@H](NC(=O)OC)C5CCC(F)(F)CC5)[nH]4)ccc32)[nH]1)C1CCC(F)(F)CC1`, for which the 90% effect concentration (EC90) in data set [1] amounted to 39 nM; in data set [2], 0.03 nM; in data set [3], 0.65 nM; in [4] it was 77 nM.
On the same counts, the results for `COC(=O)N[C@H](C(=O)N1CCC[C@H]1c1nc(-c2ccc3c(c2)O[C@@H](c2ccccc2)n2c-3cc3cc(-c4c[nH]c([C@@H]5CCCN5C(=O)[C@@H](NC(=O)OC)C(C)C)n4)ccc32)c[nH]1)C(C)C` are 28 nM, 0.006 nM, 1 nM and 11 nM.
For `CC[C@H](C)[C@H](NC(=O)OC)C(=O)N1CCC[C@H]1c1ncc(-c2ccc3c(c2)O[C@@H](c2ccccc2)n2c-3cc3cc(-c4cnc([C@@H]5CCCN5C(=O)[C@@H](NC(=O)OC)[C@@H](C)CC)[nH]4)ccc32)[nH]1` the same measures were > 100 nM, 0.011 nM, 1.8 nM and > 100 nM.
On the same counts, the results for `COC(=O)N[C@H](C(=O)N1CCC[C@H]1c1ncc(-c2ccc3c(c2)O[C@@H](c2ccccc2)n2c-3cc3cc(-c4cnc([C@@H]5CCCN5C(=O)[C@@H](NC(=O)OC)C5CCC(F)(F)CC5)[nH]4)ccc32)[nH]1)C(C)C` are 34 nM, 0.018 nM, 0.89 nM and 23 nM.
Take `COC(=O)N[C@H](C(=O)N1CCC[C@H]1c1ncc(-c2ccc3c(c2)cc2n3[C@H](c3ccccc3)Oc3cc(-c4cnc([C@@H]5CCCN5C(=O)[C@@H](NC(=O)OC)C5CCOCC5)[nH]4)ccc3-2)[nH]1)C(C)C`: the EC90 amounted to 11 nM in [1], 0.061 nM in data set [2], 0.4 nM in data set [3] and 4 nM in [4]. Also, the concentration at 1 h in data set [5] came out at 30 nM. Besides, the Tmax in data set [6] came out at 0.75 h. The same compound came in with a peak concentration (Cmax) in [7] of 31 nM.
On to `CC[C@H](C)[C@H](NC(=O)OC)C(=O)N1CCC[C@H]1c1ncc(-c2ccc3c(c2)O[C@@H](c2ccccc2)n2c-3cc3cc(-c4cnc([C@@H]5CCCN5C(=O)[C@@H](NC(=O)OC)C(C)C)[nH]4)ccc32)[nH]1`, for which the EC90 stood at 77 nM in [1], 0.06 nM in data set [2], 4.3 nM in [3] and 50 nM in data set [4].
On the same counts, the results for `CCN(CC)[C@@H](C(=O)N1CCC[C@H]1c1ncc(-c2ccc3c(c2)O[C@@H](c2ccccc2)n2c-3cc3cc(-c4cnc([C@@H]5CCCN5C(=O)[C@@H](c5ccccc5)N(CC)CC)[nH]4)ccc32)[nH]1)c1ccccc1` are > 100 nM, 0.27 nM, 0.6 nM and 3.1 nM.
On the same counts, the results for `COC(=O)N[C@H](C(=O)N1CCC[C@H]1c1ncc(-c2ccc3c(c2)cc2n3[C@H](c3ccccc3)Oc3cc(-c4cnc([C@@H]5CCCN5C(=O)[C@@H](NC(=O)OC)[C@@H](C)OC)[nH]4)ccc3-2)[nH]1)C(C)C` are 50 nM, 0.062 nM, 1.1 nM and 5 nM.
For `COC(=O)N[C@H](C(=O)N1CCC[C@H]1c1ncc(-c2ccc3c(c2)O[C@@H](c2ccccc2)n2c-3cc3cc(-c4cnc([C@@H]5CCCN5C(=O)[C@@H](NC(=O)OC)C5CCCC5)[nH]4)ccc32)[nH]1)C1CCCC1` the same measures were > 100 nM, 0.014 nM, 4.1 nM and 52 nM.
`COC(=O)NC1(C(=O)N2CCC[C@H]2c2ncc(-c3ccc4c(c3)O[C@@H](c3ccccc3)n3c-4cc4cc(-c5cnc([C@@H]6CCCN6C(=O)C6(NC(=O)OC)CCOCC6)[nH]5)ccc43)[nH]2)CCOCC1`: the 90% effect concentration (EC90) in data set [1] is > 100 nM; in data set [2], 1.4 nM; in [3] it was > 100 nM; in [4], > 100 nM.
As to `COC(=O)N[C@H](C(=O)N1CCC[C@H]1c1ncc(-c2ccc3c(c2)O[C@@H](c2ccccc2)n2c-3cc3cc(-c4cnc([C@@H]5CCCN5C(=O)[C@@H](NC(=O)OC)C5CCCCC5)[nH]4)ccc32)[nH]1)C1CCCCC1`, the 90% effect concentration (EC90) in data set [1] was > 100 nM; in data set [2] it was 0.1 nM; in data set [3], 11 nM; in data set [4], > 100 nM.
With `COC(=O)N[C@@H](C)C(=O)N1CCC[C@H]1c1ncc(-c2ccc3c(c2)O[C@@H](c2ccccc2)n2c-3cc3cc(-c4cnc([C@@H]5CCCN5C(=O)[C@H](C)NC(=O)OC)[nH]4)ccc32)[nH]1`, the EC90 is > 100 nM in [1], 0.042 nM in data set [2], 6.4 nM in data set [3] and > 100 nM in [4].
Turning to `COC(=O)N[C@H](C(=O)N1CCC[C@H]1c1ncc(-c2ccc3c(c2)O[C@@H](c2ccccc2)n2c-3cc3cc(-c4cnc([C@@H]5CCCN5C(=O)[C@@H](NC(=O)OC)C5CCOCC5)[nH]4)ccc32)[nH]1)C(C)C`, the EC90 in data set [1] turned out to be 11 nM; in data set [2], 0.06 nM; in data set [3], 0.6 nM; in [4], 9 nM.
For `COC(=O)N[C@H](C(=O)N1CCC[C@H]1c1ncc(-c2ccc3c(c2)O[C@@H](c2ccccc2)n2c-3cc3cc(-c4cnc([C@@H]5CCCN5C(=O)[C@@H](NC(=O)OC)C5CC5)[nH]4)ccc32)[nH]1)C1CC1`, the concentration for an effect of 90% (EC90) is > 100 nM in [1], 0.028 nM in data set [2], > 100 nM in [3] and > 100 nM in data set [4].
Take `CN(C)[C@@H](C(=O)N1CCC[C@H]1c1ncc(-c2ccc3c(c2)O[C@@H](c2ccccc2)n2c-3cc3cc(-c4cnc([C@@H]5CCCN5C(=O)[C@@H](c5ccccc5)N(C)C)[nH]4)ccc32)[nH]1)c1ccccc1`: the EC90 in data set [1] was > 100 nM; in [2], 0.3 nM; in [3], 2.1 nM; in [4], 0.87 nM.
On the same counts, the results for `COC(=O)N[C@@H](CC1CCOCC1)C(=O)N1CCC[C@H]1c1ncc(-c2ccc3c(c2)cc2n3[C@H](c3ccccc3)Oc3cc(-c4cnc([C@@H]5CCCN5C(=O)[C@@H](NC(=O)OC)C(C)C)[nH]4)ccc3-2)[nH]1` are 24 nM, 0.014 nM, 0.33 nM and 8.9 nM.
`COC(=O)N[C@H](C(=O)N1CCC[C@H]1c1ncc(-c2ccc3c(c2)O[C@@H](c2ccccc2)n2c-3cc3cc(-c4cnc([C@@H]5CCCN5C(=O)[C@@H](NC(=O)OC)C5CCOCC5)[nH]4)ccc32)[nH]1)C1CCOCC1`: the EC90 was 23 nM in data set [1], 0.06 nM in data set [2], < 0.2 nM in data set [3] and 1.2 nM in data set [4]. Moreover, the half-life in data set [8] was 2.4 h. Besides, the bioavailability in [9] came out at 0%. The Cmax in data set [10] amounted to 20 nM. Moreover, in data set [11], the exposure (AUC) came to 4 nM·h.
